Data from publication PMC2868945 (Bioorganic & medicinal chemistry, 2010).
Values joined by “and” are separate entries in the source; they are usually repeats but may differ in a detail not shown here. Identical values can stand only once. “Also recorded” adds a separate entry of the source.

What was measured:
[1] = target: recombinant lumazine synthase of M. tuberculosis (Mycobacterium tuberculosis, UniProt P9WHE9); test: Kinetic assay of lumazine synthase inhibitors; type: biochemical; conditions: for inhibitory activity against lumazine synthase (in words): M. tuberculosis LS; for Kcat (rate constant for ES ⇌ E + P) / Mechanism / Kis (inhibitor dissociation constant for ES + I ⇌ ESI): LS; for Kcat (rate constant for ES ⇌ E + P): fit parameter of the inhibitor's data set; for Mechanism: most likely inhibition model (DynaFit); for Kis (inhibitor dissociation constant for ES + I ⇌ ESI): pH 7.0, 27 °C, pyrimidinedione substrate varied
[2] = target: recombinant riboflavin synthase of M. tuberculosis (Mycobacterium tuberculosis, UniProt P9WK35); test: Kinetic assay of riboflavin synthase inhibitors; type: biochemical; conditions: for inhibitory activity against riboflavin synthase (in words): M. tuberculosis RS; for Mechanism: most likely inhibition model (DynaFit); for Kis (inhibitor dissociation constant for ES + I ⇌ ESI): pH 7.0, 27 °C
[3] = target: T1, M. tuberculosis lumazine synthase (Mycobacterium tuberculosis, UniProt P9WHE9); conditions: cited from earlier work
[4] = target: T1, M. tuberculosis lumazine synthase; test: biochemical; type: binding; conditions: for binding enthalpy ΔH: 100 mM potassium phosphate buffer, pH 7.0, 30 °C, apparent; for entropy ΔS of binding: calculated from ΔG = ΔH − TΔS
[5] = target: icosahedral lumazine synthase from Bacillus anthracis (Bacillus anthracis, UniProt Q81MB5); type: binding
[6] = target: pentameric lumazine synthase from Schizosaccharomyces pombe (Schizosaccharomyces pombe, UniProt Q9UUB1); type: binding; conditions: same experimental limits as for the M. tuberculosis enzyme
[7] = RS, fit parameter of the inhibitor's data set

recombinant riboflavin synthase of M. tuberculosis, sequence (P9WK35 whole entry): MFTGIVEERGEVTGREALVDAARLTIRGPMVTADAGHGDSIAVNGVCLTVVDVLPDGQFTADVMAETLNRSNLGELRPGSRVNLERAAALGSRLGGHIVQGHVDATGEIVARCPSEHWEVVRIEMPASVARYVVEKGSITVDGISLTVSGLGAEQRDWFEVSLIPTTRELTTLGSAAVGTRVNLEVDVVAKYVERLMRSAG
recombinant lumazine synthase of M. tuberculosis, sequence (P9WHE9 whole entry): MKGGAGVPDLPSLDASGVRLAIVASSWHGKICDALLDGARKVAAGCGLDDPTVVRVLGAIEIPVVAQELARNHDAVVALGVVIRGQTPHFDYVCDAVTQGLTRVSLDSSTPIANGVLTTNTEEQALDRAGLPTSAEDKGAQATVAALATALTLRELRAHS
T1 sequence (P9WHE9 whole entry): as above
icosahedral lumazine synthase from Bacillus anthracis, sequence (Q81MB5 whole entry, looked up): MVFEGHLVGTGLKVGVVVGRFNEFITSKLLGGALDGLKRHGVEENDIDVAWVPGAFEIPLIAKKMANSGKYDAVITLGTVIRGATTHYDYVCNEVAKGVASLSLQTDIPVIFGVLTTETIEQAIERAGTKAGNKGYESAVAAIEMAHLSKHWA
pentameric lumazine synthase from Schizosaccharomyces pombe, sequence (Q9UUB1 whole entry): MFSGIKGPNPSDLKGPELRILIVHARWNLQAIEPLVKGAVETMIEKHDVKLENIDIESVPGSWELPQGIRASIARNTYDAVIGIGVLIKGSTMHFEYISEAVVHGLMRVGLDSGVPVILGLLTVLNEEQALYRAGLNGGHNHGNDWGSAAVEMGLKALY

Molecule | inhibitory activity against lumazine synthase (in words) [1] | inhibitory activity against riboflavin synthase (in words) [2] | Kcat (rate constant for ES ⇌ E + P) [1] | Mechanism [1] | Kis (inhibitor dissociation constant for ES + I ⇌ ESI) [1] | Ks (substrate dissociation constant for E + S ⇌ ES) [2, 7] | Kis (inhibitor dissociation constant for ES + I ⇌ ESI) ([2]; RS) | further results
1,1-Difluoro-4-(2-oxo-1,2-dihydrobenzo[cd]indole-6-sulfonamido)butylphosphonic Acid [Compound 71] | inactive | inactive | – | – | – | – | – | –
CCOC(=O)C(=O)Nc1c(Cl)[nH]c(=O)[nH]c1=O [Compound 77, Ethyl 2-(6-Chloro-2,4,dioxo-1,2,3,4-tetrahydropyrimidin-5-ylamino)-2-oxoethanoate] | – | weak, uncompetitive inhibitors | 0.61 ± 0.02 m^−1 | Mixed | > 1000 µM | 7.8 ± 0.3 µM | 897 ± 104 µM | Mechanism ([2]; RS): Uncompetitive
4-(2-Oxo-1,2-dihydrobenzo[cd]indole-6-sulfonamido)pentylphosphonic Acid [Compound 55] | absolutely no inhibitory activity | – | – | – | – | – | – | –
CCC(O)CNS(=O)(=O)c1ccc2c3c(cccc13)C(=O)N2 (stereo not drawn) [Compound 32, N-(2-Hydroxybutyl)-2-oxo-1,2-dihydrobenzo[cd]indole-6-sulfonamide] | totally inactive | – | – | – | – | – | – | –
O=C1Nc2ccc(S(=O)(=O)NCCCCP(=O)(O)O)c3cccc1c23 [Compound 54, 4-(2-Oxo-1,2-dihydrobenzo[cd]indole-6-sulfonamido)butylphosphonic Acid] | absolutely no inhibitory activity | – | – | – | – | – | – | –
1,1-Difluoro-4-(2-oxo-1,2-dihydrobenzo[cd]indole-6-sulfonamido)hexylphosphonic Acid [Compound 73] | inactive | inactive | – | – | – | – | – | –
O=c1[nH]c(Cl)c(CCCCOP(=O)(O)O)c(=O)[nH]1 [Compound 11, 4-(6-chloro-2,4-dioxo-1,2,3,4-tetrahydropyrimidin-5-yl)butyl dihydrogen phosphate] | – | – | – | – | – | – | – | Ki ([3]; M. tuberculosis lumazine synthase): 0.88 µM; inhibition constant (in words) ([3]; lumazine synthase): nanomolar range
O=C1Nc2ccc(S(=O)(=O)NCCO)c3cccc1c23 [Compound 31, N-(2-Hydroxyethyl)-2-oxo-1,2-dihydrobenzo[cd]indole-6-sulfonamide] | totally inactive | – | – | – | – | – | – | –
O=C1Nc2ccc(S(=O)(=O)NCCOP(=O)(O)O)c3cccc1c23 [Compound 26, 2-(2-Oxo-1,2-dihydrobenzo[cd]indole-6-sulfonamido)ethyl Dihydrogen Phosphate] | – | – | 0.41 ± 0.01 m^−1 | Partial | 125 ± 57 µM | 5.7 ± 0.04 µM | > 1000 µM | –
O=C1Nc2ccc(S(=O)(=O)NCCCOP(=O)(O)O)c3cccc1c23 [Compound 27, 3-(2-Oxo-1,2-dihydrobenzo[cd]indole-6-sulfonamido)propyl Dihydrogen Phosphate] | – | – | 0.45 ± 0.01 m^−1 | Mixed | 434 ± 115 µM | 5.6 ± 0.04 µM | > 1000 µM | Kd [4]: 112 µM; binding enthalpy ΔH ([4]; ITC): -5.2 ± 0.7 kcal/mol; entropy ΔS of binding ([4]; ITC, 30 °C): 0.98 cal·mol^−1·deg^−1
5-(2-Oxo-1,2-dihydrobenzo[cd]indole-6-sulfonamido)hexyl Dihydrogen Phosphate [Compound 40] | – | weak, uncompetitive inhibitors | 0.45 ± 0.01 m^−1 | Uncompetitive | 723 ± 91 µM | 9.8 ± 0.6 µM | 898 ± 187 µM | Kcat (rate constant for ES ⇌ E + P) [2, 7]: 0.56 ± 0.01 m^−1; Mechanism ([2]; RS): Uncompetitive
O=C1Nc2ccc(S(=O)(=O)NCCCCCOP(=O)(O)O)c3cccc1c23 [Compound 39, 5-(2-oxo-1,2-dihydrobenzo[cd]indole-6-sulfonamido)pentyl Dihydrogen Phosphate] | – | weak, uncompetitive inhibitors | 0.45 ± 0.01 m^−1 | Uncompetitive | 563 ± 56 µM | 9.8 ± 0.6 µM | 971 ± 179 µM | Mechanism ([2]; RS): Uncompetitive
O=C1Nc2ccc(S(=O)(=O)NCCCCCO)c3cccc1c23 [Compound 33, N-(5-Hydroxypentyl)-2-oxo-1,2-dihydrobenzo[cd]indole-6-sulfonamide] | totally inactive | – | – | – | – | – | – | –
O=C(O)CNS(=O)(=O)c1ccc2c3c(cccc13)C(=O)N2 [Compound 9, 2-(2-oxo-1,2-dihydrobenzo[cd]indole-6-sulfonamido)acetic acid] | demonstrated inhibition | – | – | – | 58 µM | – | – | –
1,1-Difluoro-4-(2-oxo-1,2-dihydrobenzo[cd]indole-6-sulfonamido)pentylphosphonic Acid [Compound 72] | poor inhibitory activity | inactive | 0.57 ± 0.01 m^−1 | Mixed | 518 µM and 518 ± 94 µM | 4.1 ± 0.3 µM | > 1000 µM | –
O=C1Nc2ccc(S(=O)(=O)NCCCCOP(=O)(O)O)c3cccc1c23 [Compound 38, 4-(2-Oxo-1,2-dihydrobenzo[cd]indole-6-sulfonamido)butyl Dihydrogen Phosphate] | – | – | 0.44 ± 0.01 m^−1 | Mixed | 572 ± 210 µM | 6.5 ± 0.3 µM | > 1000 µM | Kd [4]: 130 µM; binding enthalpy ΔH ([4]; ITC): -7.6 ± 1.3 kcal/mol; entropy ΔS of binding ([4]; ITC, 30 °C): −7.2 cal·mol^−1·deg^−1; stoichiometry (n) of the binding reaction ([4]; ITC, 30 °C, inhibitor molecules per active site): 1; binding detected by titration calorimetry (in words) [5]: do not indicate a binding reaction; also recorded: did not detect binding; binding detected by titration calorimetry (in words) [6]: do not indicate a binding reaction; also recorded: did not detect binding
